The target of one experiment is SUMO-activating enzyme (Homo sapiens, UniProt Q9UBT2). Kind of experiment: blockers of UBC9-mediated SUMO conjugation – biochemical, AlphaScreen, SUMOylation inhibitor project, confirmation (AID 2018). Type of experiment: functional. Background: Alpha assays give light when donor and acceptor beads are brought close together.
The target of another experiment is T1, Aminopeptidase N (Plasmodium falciparum FcB1/Columbia, UniProt O96935).
T1 sequence (O96935 whole entry): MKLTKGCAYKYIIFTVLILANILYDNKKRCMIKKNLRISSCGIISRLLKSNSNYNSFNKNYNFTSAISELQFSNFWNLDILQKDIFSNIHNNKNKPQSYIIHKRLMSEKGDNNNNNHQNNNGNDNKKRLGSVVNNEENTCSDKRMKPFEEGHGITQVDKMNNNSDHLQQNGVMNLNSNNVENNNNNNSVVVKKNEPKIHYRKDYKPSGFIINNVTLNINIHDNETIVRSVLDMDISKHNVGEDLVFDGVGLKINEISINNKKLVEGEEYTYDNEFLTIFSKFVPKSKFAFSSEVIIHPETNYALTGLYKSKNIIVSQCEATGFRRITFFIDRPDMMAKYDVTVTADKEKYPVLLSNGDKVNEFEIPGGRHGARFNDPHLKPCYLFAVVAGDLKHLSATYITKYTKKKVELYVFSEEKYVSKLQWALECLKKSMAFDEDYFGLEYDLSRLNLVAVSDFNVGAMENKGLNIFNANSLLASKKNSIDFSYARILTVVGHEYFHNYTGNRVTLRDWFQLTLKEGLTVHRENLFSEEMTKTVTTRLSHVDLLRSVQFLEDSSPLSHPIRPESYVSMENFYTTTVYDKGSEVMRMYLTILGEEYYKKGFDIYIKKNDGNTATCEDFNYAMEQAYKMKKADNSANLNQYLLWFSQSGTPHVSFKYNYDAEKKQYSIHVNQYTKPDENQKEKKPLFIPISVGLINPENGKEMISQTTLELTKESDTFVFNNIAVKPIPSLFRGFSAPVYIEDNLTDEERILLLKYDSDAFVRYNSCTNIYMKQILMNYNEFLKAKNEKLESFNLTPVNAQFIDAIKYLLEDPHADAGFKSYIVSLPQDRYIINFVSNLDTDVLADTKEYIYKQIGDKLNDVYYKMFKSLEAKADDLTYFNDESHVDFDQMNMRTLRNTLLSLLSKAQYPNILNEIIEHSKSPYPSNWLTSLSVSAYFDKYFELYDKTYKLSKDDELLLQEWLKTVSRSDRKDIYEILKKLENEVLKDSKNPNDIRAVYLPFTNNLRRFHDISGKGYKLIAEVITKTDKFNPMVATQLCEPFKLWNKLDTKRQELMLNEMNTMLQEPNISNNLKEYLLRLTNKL
Kind of experiment: malaria alanyl aminopeptidase activity blockers – biochemical, fluorogenic H-Leu-NHMec substrate, 1536-well (AID 1445). On the set-up: species or system Plasmodium falciparum 3D7, 3D7.

The target of experiment [1] is T2, Apoptotic protease-activating factor 1 (Homo sapiens, UniProt O14727).
T2 sequence (O14727 whole entry): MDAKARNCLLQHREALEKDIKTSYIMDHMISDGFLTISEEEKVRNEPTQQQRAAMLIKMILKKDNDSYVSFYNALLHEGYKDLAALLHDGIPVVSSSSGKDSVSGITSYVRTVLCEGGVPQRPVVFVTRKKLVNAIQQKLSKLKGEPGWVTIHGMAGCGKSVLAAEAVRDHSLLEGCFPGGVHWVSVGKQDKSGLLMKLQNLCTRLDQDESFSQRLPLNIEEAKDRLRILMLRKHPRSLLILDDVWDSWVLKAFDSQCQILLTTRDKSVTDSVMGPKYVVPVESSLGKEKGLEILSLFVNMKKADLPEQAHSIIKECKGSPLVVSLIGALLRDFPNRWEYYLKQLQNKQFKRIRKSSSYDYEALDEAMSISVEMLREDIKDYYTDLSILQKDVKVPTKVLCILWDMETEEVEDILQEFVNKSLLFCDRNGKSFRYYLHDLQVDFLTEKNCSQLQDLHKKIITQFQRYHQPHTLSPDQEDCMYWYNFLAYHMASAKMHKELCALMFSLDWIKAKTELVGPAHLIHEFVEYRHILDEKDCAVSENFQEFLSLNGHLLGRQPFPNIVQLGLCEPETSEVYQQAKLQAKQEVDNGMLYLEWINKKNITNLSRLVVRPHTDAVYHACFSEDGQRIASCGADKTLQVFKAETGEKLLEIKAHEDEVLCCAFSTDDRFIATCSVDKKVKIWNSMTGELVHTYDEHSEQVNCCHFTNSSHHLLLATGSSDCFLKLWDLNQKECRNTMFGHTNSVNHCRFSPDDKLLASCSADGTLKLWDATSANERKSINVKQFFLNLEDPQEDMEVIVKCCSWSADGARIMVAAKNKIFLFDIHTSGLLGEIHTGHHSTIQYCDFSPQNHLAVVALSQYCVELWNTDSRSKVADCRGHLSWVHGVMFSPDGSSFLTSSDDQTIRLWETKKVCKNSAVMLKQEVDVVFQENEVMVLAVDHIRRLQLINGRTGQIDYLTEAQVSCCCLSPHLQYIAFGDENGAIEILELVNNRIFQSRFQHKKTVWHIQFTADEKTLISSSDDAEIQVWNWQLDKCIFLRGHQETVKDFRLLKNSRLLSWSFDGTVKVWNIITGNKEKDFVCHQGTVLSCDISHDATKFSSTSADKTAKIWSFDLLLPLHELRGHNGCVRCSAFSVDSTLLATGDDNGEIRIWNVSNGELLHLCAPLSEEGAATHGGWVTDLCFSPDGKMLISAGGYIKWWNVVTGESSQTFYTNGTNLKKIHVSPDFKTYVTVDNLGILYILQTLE
Type of experiment: functional.

Experiment [2] in a line: Counterscreen for AddAB inhibitors: absorbance-based bacterial cell-based high throughput dose response assay for inhibitors of bacterial viability. [Related pubchem assays (depositor defined):AID435030, AID449728, AID449731, AID488942, AID488955, AID488956]. Type of experiment: functional.

Calls of active or inactive are those of the source.

SUMO-activating enzyme, sequence (Q9UBE0 whole entry): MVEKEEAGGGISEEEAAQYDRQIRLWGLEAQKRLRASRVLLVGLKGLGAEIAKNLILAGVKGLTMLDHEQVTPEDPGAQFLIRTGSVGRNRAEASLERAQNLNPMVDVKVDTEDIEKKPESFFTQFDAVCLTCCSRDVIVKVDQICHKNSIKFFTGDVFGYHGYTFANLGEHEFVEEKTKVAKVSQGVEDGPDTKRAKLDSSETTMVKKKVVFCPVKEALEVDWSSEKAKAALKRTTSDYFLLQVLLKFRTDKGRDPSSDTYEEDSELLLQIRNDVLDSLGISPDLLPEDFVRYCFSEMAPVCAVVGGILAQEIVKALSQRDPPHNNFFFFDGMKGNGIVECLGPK
SUMO-activating enzyme, sequence (Q9UBT2 whole entry): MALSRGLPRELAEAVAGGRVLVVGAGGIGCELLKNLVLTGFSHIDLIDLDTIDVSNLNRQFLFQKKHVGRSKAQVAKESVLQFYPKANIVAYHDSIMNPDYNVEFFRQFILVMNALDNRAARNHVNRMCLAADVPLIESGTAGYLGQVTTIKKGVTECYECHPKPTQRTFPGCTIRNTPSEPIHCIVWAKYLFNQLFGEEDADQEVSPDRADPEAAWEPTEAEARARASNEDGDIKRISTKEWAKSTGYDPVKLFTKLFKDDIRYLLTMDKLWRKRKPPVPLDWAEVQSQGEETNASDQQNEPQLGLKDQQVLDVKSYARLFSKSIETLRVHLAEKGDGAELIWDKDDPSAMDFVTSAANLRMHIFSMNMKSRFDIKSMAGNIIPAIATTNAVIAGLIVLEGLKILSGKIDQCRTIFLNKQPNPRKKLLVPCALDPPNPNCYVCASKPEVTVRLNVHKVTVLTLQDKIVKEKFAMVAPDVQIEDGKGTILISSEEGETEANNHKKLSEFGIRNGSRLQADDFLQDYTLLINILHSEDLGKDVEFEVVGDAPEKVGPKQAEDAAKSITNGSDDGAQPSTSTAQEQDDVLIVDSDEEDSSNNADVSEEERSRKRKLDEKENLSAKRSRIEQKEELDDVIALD

For `N#Cc1c(N2CCCCC2)nc(N)c2c(N)nc(SCC(=O)O)cc12`, the IC50 (as a rule, the point on the concentration scale where inhibition reaches its midpoint) at SUMO-activating enzyme is 0.86 µM (active). Take `Oc1c(Cl)cc(Cl)c(Cl)c1Cc1c(O)c(Cl)cc(Cl)c1Cl` [HEXACHLOROPHENE]: on Aminopeptidase N, the IC50 is 58 µM (active). Turning to `CC1(C)Cc2ccccc2C2=NNC(=O)C2=N1`, the IC50 in experiment [1] is 14 µM (active). On to `CCCC(=O)NC(c1ccc(C(C)C)cc1)c1ccc2cccnc2c1O` (centres undefined), for which the IC50 in experiment [2] is > 119 µM (inactive).

Values taken from ChEMBL document CHEMBL1201862, “PubChem BioAssay data set” (2004).
